Laboratory results taken from ChEMBL document CHEMBL3596152, “Synthesis of 1-O-acetylbritannilactone analogues from Inula britannica and in vitro evaluation of their anticancer potential” (Medchemcomm, 2014).
The source made the active and inactive calls. No cut-off for these calls is given here.

Legend:
HCT-116 = assay: Cytotoxicity against human HCT116 cells assessed as reduction in cell viability incubated for 72 hrs by SRB assay; type: functional, cell-based; details: HCT-116, 72 h
HeLa [1] = assay: Cytotoxicity against human HeLa cells assessed as reduction in cell viability incubated for 72 hrs by SRB assay; type: functional, cell-based
[2] = Cytotoxicity against human SGC7901 cells assessed as reduction in cell viability incubated for 72 hrs by SRB assay; type: functional, cell-based; details: SGC-7901, 72 h
HeLa [3] = assay: Induction of apoptosis in human HeLa cells assessed as increase in cleaved caspase-3 levels at 3 to 12 uM incubated for 48 hrs by Western blotting method; type: functional, cell-based
HeLa [4] = assay: Induction of cell cycle arrest in human HeLa cells assessed as accumulation at G0/G1 phase at 20 uM incubated for 24 hrs by propidium iodide staining based flow cytometry (reference value: 31.1%); type: functional
HeLa [5] = assay: Induction of apoptosis in human HeLa cells assessed as late apoptotic cells levels at 3 uM incubated for 72 hrs by annexin V-FITC and propidium iodide staining based flow cytometry (reference value: 2.8%); type: functional
[6] = Thiol reactivity in DMSO-d6 solution assessed as formation of 1-O-acetyl-6-O-benzoyl-13-(2-hydroxyethylthiol) britannilactone at 0.05 mmol in presence of beta-mercaptoethanol by 1H NMR Michael acceptor assay
HeLa [7] = assay: Induction of cell cycle arrest in human HeLa cells assessed as accumulation at S pahse at 10 uM incubated for 24 hrs by propidium iodide staining based flow cytometry (reference value: 40.5%); type: functional
HeLa [8] = assay: Induction of apoptosis in human HeLa cells assessed as early apoptotic cells levels at 6 uM incubated for 72 hrs by annexin V-FITC and propidium iodide staining based flow cytometry (reference value: 1.4%); type: functional
HeLa [9] = assay: Induction of cell cycle arrest in human HeLa cells assessed as accumulation at S pahse at 5 uM incubated for 24 hrs by propidium iodide staining based flow cytometry (reference value: 40.5%); type: functional
HeLa [10] = assay: Induction of cell cycle arrest in human HeLa cells assessed as accumulation at S pahse at 20 uM incubated for 24 hrs by propidium iodide staining based flow cytometry (reference value: 40.5%); type: functional
HeLa [11] = assay: Induction of cell cycle arrest in human HeLa cells assessed as accumulation at G0/G1 phase at 5 uM incubated for 24 hrs by propidium iodide staining based flow cytometry (reference value: 31.1%); type: functional
[12] = Thiol reactivity in DMSO-d6 solution assessed as formation of 1,6-O,O-diacetyl-13-(2-hydroxyethylthiol) britannilactone at 0.05 mmol in presence of beta-mercaptoethanol by 1H NMR Michael acceptor assay
HeLa [13] = assay: Cytotoxicity against human HeLa cells assessed as reduction in cell viability at 1.57 to 12.5 uM in presence of 1 mM NAC incubated for 72 hrs by SRB assay; type: functional, cell-based
HeLa [14] = assay: Induction of apoptosis in human HeLa cells assessed as necrotic cells levels at 3 uM incubated for 72 hrs by annexin V-FITC and propidium iodide staining based flow cytometry (reference value: 0.2%); type: functional
HeLa [15] = assay: Induction of apoptosis in human HeLa cells assessed as early apoptotic cells levels at 3 uM incubated for 72 hrs by annexin V-FITC and propidium iodide staining based flow cytometry (reference value: 1.4%); type: functional
HeLa [16] = assay: Induction of cell cycle arrest in human HeLa cells assessed as accumulation at G0/G1 phase at 10 uM incubated for 24 hrs by propidium iodide staining based flow cytometry (reference value: 31.1%); type: functional
HeLa [17] = assay: Induction of cell cycle arrest in human HeLa cells assessed as accumulation at G2/M pahse at 5 uM incubated for 24 hrs by propidium iodide staining based flow cytometry (reference value: 28.4%); type: functional
HeLa [18] = assay: Induction of cell cycle arrest in human HeLa cells assessed as accumulation at G2/M pahse at 10 uM incubated for 24 hrs by propidium iodide staining based flow cytometry (reference value: 28.4%); type: functional
HeLa [19] = assay: Induction of apoptosis in human HeLa cells assessed as late apoptotic cells levels at 6 uM incubated for 72 hrs by annexin V-FITC and propidium iodide staining based flow cytometry (reference value: 2.8%); type: functional
HeLa [20] = assay: Induction of cell cycle arrest in human HeLa cells assessed as accumulation at G2/M pahse at 20 uM incubated for 24 hrs by propidium iodide staining based flow cytometry (reference value: 28.4%); type: functional
HeLa [21] = assay: Induction of apoptosis in human HeLa cells assessed as necrotic cells levels at 6 uM incubated for 72 hrs by annexin V-FITC and propidium iodide staining based flow cytometry (reference value: 0.2%); type: functional
[22] = Thiol reactivity in DMSO-d6 solution at 0.05 mmol in presence of beta-mercaptoethanol by 1H NMR Michael acceptor assay
HeLa [23] = assay: Cytotoxicity against human HeLa cells assessed as reduction in cell viability at 1.57 to 12.5 uM incubated for 72 hrs by SRB assay; type: functional, cell-based

C=C1C(=O)O[C@@H]2CC(C)=C([C@@H](C)CCCOC(C)=O)[C@@H](OC(=O)c3ccccc3F)[C@H]12
IC50 (HCT-116): 21.1 µM | IC50 (HeLa [1]): 17 µM | IC50 [2]: 19.3 µM

C=C1C(=O)O[C@@H]2CC(C)=C([C@@H](C)CCCOC(C)=O)[C@@H](OC(=O)COc3ccc([N+](=O)[O-])cc3[N+](=O)[O-])[C@H]12
IC50 (HCT-116): > 100 µM | IC50 (HeLa [1]): > 100 µM | IC50 [2]: > 100 µM

C=C1C(=O)O[C@@H]2CC(C)=C([C@@H](C)CCCOC(C)=O)[C@@H](OC(=O)COc3cccc(C(C)=O)c3)[C@H]12
IC50 (HCT-116): 45.5 µM | IC50 (HeLa [1]): 38.6 µM | IC50 [2]: 46.1 µM

C=C1C(=O)O[C@@H]2CC(C)=C([C@@H](C)CCCOC(C)=O)[C@@H](OC(=O)COc3cccc4cccnc34)[C@H]12
IC50 (HCT-116): 12.1 µM | IC50 (HeLa [1]): 8.94 µM | IC50 [2]: 14.3 µM

C=C1C(=O)O[C@@H]2CC(C)=C([C@@H](C)CCCOC(C)=O)[C@@H](OC(=O)COc3ccc(C(C)=O)cc3)[C@H]12
IC50 (HCT-116): 40.1 µM | IC50 (HeLa [1]): 43.9 µM | IC50 [2]: 49.6 µM

C=C1C(=O)O[C@@H]2CC(C)=C([C@@H](C)CCCOC(C)=O)[C@@H](OC(=O)c3ccc([N+](=O)[O-])cc3)[C@H]12
IC50 (HeLa [1]): 11.3 µM

C=C1C(=O)O[C@@H]2CC(C)=C([C@@H](C)CCCOC(C)=O)[C@@H](OC(=O)c3cc(OC)c(OC)c(OC)c3)[C@H]12
IC50 (HeLa [1]): 6.54 µM

C=C1C(=O)O[C@@H]2CC(C)=C([C@@H](C)CCCOC(C)=O)[C@@H](OC(=O)c3ccccc3)[C@H]12
Activity (HeLa [3]): Dose-dependent effect | Activity (HeLa [4]): 20.7% | Activity (HeLa [5]): 6.9% | Activity [6]: Active | Activity (HeLa [7]): 18.1% | Activity (HeLa [8]): 4.5% | IC50 (HCT-116): 10.5 µM | Activity (HeLa [9]): 41.3% | IC50 (HeLa [1]): 5.19 µM | Activity (HeLa [10]): 15.6% | Activity (HeLa [11]): 29.5% | Activity [12]: Active | Activity (HeLa [13]): inactive | Activity (HeLa [14]): 0.3% | Activity (HeLa [15]): 3.9% | Activity (HeLa [16]): 28.7% | IC50 [2]: 9.93 µM | Activity (HeLa [17]): 29.2% | Activity (HeLa [18]): 53.2% | Activity (HeLa [19]): 30% | Activity (HeLa [20]): 63.7% | Activity (HeLa [21]): 3.5% | Activity [22]: Active | Activity (HeLa [23]): Dose-dependent effect

C=C1C(=O)O[C@@H]2CC(C)=C([C@@H](C)CCCOC(C)=O)[C@@H](OC(=O)COc3cccc4[nH]nnc34)[C@H]12
IC50 (HCT-116): 23.7 µM | IC50 (HeLa [1]): 23 µM | IC50 [2]: 21.1 µM

C=C1C(=O)O[C@@H]2CC(C)=C([C@@H](C)CCCOC(C)=O)[C@@H](OC(=O)c3cccc(F)c3)[C@H]12
IC50 (HCT-116): 14.5 µM | IC50 (HeLa [1]): 11.8 µM | IC50 [2]: 12.9 µM

C=C1C(=O)O[C@@H]2CC(C)=C([C@@H](C)CCCOC(C)=O)[C@@H](OC(=O)CN(CC)CC)[C@H]12
IC50 (HCT-116): 13.1 µM | IC50 (HeLa [1]): 10.7 µM | IC50 [2]: 11.6 µM

C=C1C(=O)O[C@@H]2CC(C)=C([C@@H](C)CCCOC(C)=O)[C@@H](OC(=O)CCl)[C@H]12
IC50 (HCT-116): 18.8 µM | IC50 (HeLa [1]): 28.5 µM | IC50 [2]: 26.5 µM

C=C1C(=O)O[C@@H]2CC(C)=C([C@@H](C)CCCOC(C)=O)[C@@H](OC(=O)c3ccc(F)cc3)[C@H]12
IC50 (HCT-116): 14.9 µM | IC50 (HeLa [1]): 12 µM | IC50 [2]: 13.6 µM
